The text below walks through data of ChEMBL document CHEMBL4842355, “Improved potency of pyridin-2(1H)one derivatives for the treatment of mechanical allodynia” (Eur J Med Chem, 2021).

Assay [1] deals with T1, Mitogen-activated protein kinase 14 (Homo sapiens, UniProt Q16539). Put plainly: Inhibition of p38 alpha (unknown origin) assessed as residual activity at 1 uM relative to control.
A further assay relates to Rattus norvegicus. Kind of assay: Anti-allodynic activity in complete freund's adjuvant-induced rat inflammatory pain model assessed as inhibition of inflammatory mechanical allodynia at 10 uM, ic administered 30 min before CFA injection and measured after 120 mins by Von Frey filament assay relative to control. It counts as functional. The note with it: 2.5 h, time 150 min.

Assay [2] deals with T1, Mitogen-activated protein kinase 14. Kind of assay: Inhibition of p38 alpha (unknown origin).
Assay [3] shares this target. Put plainly: Inhibition of p38 alpha (unknown origin) at 1 uM relative to control.

Molecules are shown by their SMILES.

T1 sequence (Q16539 whole entry): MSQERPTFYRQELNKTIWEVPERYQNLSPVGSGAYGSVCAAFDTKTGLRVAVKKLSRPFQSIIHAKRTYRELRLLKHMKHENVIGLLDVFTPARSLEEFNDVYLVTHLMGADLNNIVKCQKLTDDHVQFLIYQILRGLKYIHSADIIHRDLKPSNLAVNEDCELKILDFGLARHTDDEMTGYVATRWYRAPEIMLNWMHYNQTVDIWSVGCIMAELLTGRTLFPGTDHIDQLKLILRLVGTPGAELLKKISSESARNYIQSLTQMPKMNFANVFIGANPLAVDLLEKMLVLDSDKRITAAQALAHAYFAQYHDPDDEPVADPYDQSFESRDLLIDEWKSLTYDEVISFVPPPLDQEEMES

In the case of `Cc1ccccc1Nc1c[nH]c(=O)c(-c2cccc3[nH]ccc23)c1`, in assay [1], the Activity came to 33%. Besides, the inhibition in vivo at 10 µM in the assay with Rattus norvegicus is more than 80%. In assay [2], the IC50 was found to be 1.1 µM.

With `COc1ccc(Nc2c[nH]c(=O)c(-c3cccc4[nH]ccc34)c2)cc1`, the Activity in assay [1] was determined as 59%. Also, the inhibition in vivo at 10 µM in the assay with Rattus norvegicus was 16%.

Consider `O=c1[nH]cc(Nc2ccc(Br)cc2)cc1-c1cccc2[nH]ccc12`, for which, in assay [1], the Activity came to 43%. In addition, in assay [2], the IC50 turned out to be 2.4 µM.

With `O=c1[nH]cc(Nc2ccccc2F)cc1-c1cccc2[nH]ccc12`, the Activity in assay [1] stood at 28%. Moreover, in assay [3], the inhibition was determined as 72%.

As to `O=c1[nH]cc(Nc2cccc([N+](=O)[O-])c2)cc1-c1cccc2[nH]ccc12`, the Activity in assay [1] turned out to be 73.9%.

With `O=c1[nH]cc(Nc2ccc(F)cc2)cc1-c1cccc2[nH]ccc12`, the Activity in assay [1] was found to be 39%. The inhibition in vivo at 10 µM in the assay on Rattus norvegicus was more than 80%. In assay [2], this molecule registered an IC50 of 0.4 µM.

On to `CCOC(=O)c1ccc(Nc2c[nH]c(=O)c(-c3cccc4[nH]ccc34)c2)cc1`, for which the Activity in assay [1] turned out to be 86%.

For the molecule `CCOC(=O)c1ccccc1Nc1c[nH]c(=O)c(-c2cccc3[nH]ccc23)c1`, the Activity in assay [1] was 104%.

With `O=c1[nH]cc(Nc2ccccc2)cc1-c1cccc2[nH]ccc12`, in assay [1], the Activity was determined as 59%.

As for `CCOC(=O)c1cccc(Nc2c[nH]c(=O)c(-c3cccc4[nH]ccc34)c2)c1`, in assay [1], the Activity was found to be 81%. Also, the inhibition in vivo at 10 µM in the assay on Rattus norvegicus is more than 80%.

As for `COc1ccccc1Nc1c[nH]c(=O)c(-c2cccc3[nH]ccc23)c1`, the Activity in assay [1] came out at 50%. In addition, the inhibition in vivo at 10 µM in the assay with Rattus norvegicus is more than 80%.

For the molecule `O=c1[nH]cc(Nc2cccc(F)c2)cc1-c1cccc2[nH]ccc12`, in assay [1], the Activity is 47%. For the same molecule, in the assay on Rattus norvegicus, the inhibition in vivo at 10 µM is more than 80%. For the same molecule, inhibition in assay [2] was half-maximal at 1.4 µM (IC50).

In the case of `O=c1[nH]cc(Nc2ccccc2)cc1-c1ccccc1Br`, in assay [1], the Activity turned out to be 59%. Further, in the assay on Rattus norvegicus, the inhibition in vivo at 10 µM amounted to 65%. In assay [3], this molecule displayed an inhibition of 41%.

As for `O=c1[nH]cc(Nc2ccncc2)cc1-c1cccc2[nH]ccc12`, in assay [1], the Activity is 67%. Besides, the inhibition in vivo at 10 µM with Rattus norvegicus amounted to 100%. Besides, the inhibition in assay [3] was 33%.

Regarding `O=c1[nH]cc(Nc2ccccc2[N+](=O)[O-])cc1-c1cccc2[nH]ccc12`, the Activity in assay [1] stood at 92.3%. Further, the inhibition in vivo at 10 µM with Rattus norvegicus was more than 80%.

For `O=c1[nH]cc(Nc2cccc(O)c2)cc1-c1cccc2[nH]ccc12`, the Activity in assay [1] turned out to be 34%. Besides, the half-maximal inhibitory concentration (IC50) in assay [2] was determined as 1 µM.

Turning to `O=c1[nH]cc(Nc2cccc(Br)c2)cc1-c1cccc2[nH]ccc12`, in assay [1], the Activity turned out to be 31%. The IC50 in assay [2] was found to be 0.7 µM.

As to `O=c1[nH]cc(Nc2ccccn2)cc1-c1cccc2[nH]ccc12`, the Activity in assay [1] came to 70%. Moreover, the inhibition in vivo at 10 µM with Rattus norvegicus is more than 80%.

Consider `O=c1[nH]cc(Nc2ccccc2Br)cc1-c1cccc2[nH]ccc12`, for which the Activity in assay [1] stood at 45%.

On to `O=c1[nH]cc(Nc2ccc([N+](=O)[O-])cc2)cc1-c1cccc2[nH]ccc12`, for which the Activity in assay [1] amounted to 93%. The inhibition in vivo at 10 µM in the assay with Rattus norvegicus is 98%.

For `COc1cccc(Nc2c[nH]c(=O)c(-c3cccc4[nH]ccc34)c2)c1`, in assay [1], the Activity was found to be 50%. In addition, the inhibition in vivo at 10 µM in the assay with Rattus norvegicus was more than 80%.

As to `O=c1[nH]cc(Nc2cccnc2)cc1-c1cccc2[nH]ccc12`, in assay [1], the Activity amounted to 64%.
